pIC50: −log10 of the molar value.
Key:
[1] = tested on: IL-1β secretion from human whole blood; assay: Inhibition of IL-1β secretion from whole blood; type: cell-based; conditions: human whole blood diluted 1:2, LPS 5 ng/ml, 18 hours, ELISA
Protocol: Human blood is freshly drawn from healthy donors and diluted 1:2 in PBS. To 500 μl of diluted blood […] of prediluted test compound in RPMI medium and […] LPS (5 ng/ml final concentration on the plate) are added (LPS, Serotype 0111:B4, Sigma L3012). After stimulation for 18 hours supernatants are collected and assayed for IL-1β levels using the appropriate ELISA kit (R&D systems).

rat cortical neurons = assay: Hypoxia-induced apoptosis of rat cortical neurons; type: cell-based, Wistar rat; conditions: Cortical neurone, 95% N2/5% CO2, Cell Death Detection ELISA (DNA fragmentation)
Protocol: Cortical neurons are dissociated from Wistar rat embryos (E17) by a modification of the procedure of Rogers et al. 1997, Brain Res. Bulletin, 44:131. Briefly, cerebral cortices are isolated aseptically from 15-20 Wistar rat embryos. A cell suspension is prepared by mincing the cerebral cortices and digesting them with papain. Cells are washed with ovomucoid enzyme inhibitor and DNaseI and plated onto Poly-D lysine coated plates in high glucose DMEM containing 10% heat-inactivated fetal calf serum, L-glutamine, penicillin and streptomycin. The yield of neurons is […] per embryo and they are 80-90% viable as assessed by Trypan blue exclusion.
The neurons are cultured in complete medium at 37° C. in a normal atmosphere for 48 hours prior to the hypoxia experiments. For hypoxia, the normal cell medium is replaced by oxygen-depleted serum-free medium. Cells are incubated in an atmosphere of 95% N2/5% CO2 for various lengths of time. Compounds are dissolved in DMSO at 100 mM then diluted in medium and added to the culture from time=0. The level of apoptosis is measured using a Cell Death Detection ELISA kit (Roche) which detects DNA fragmentation. Plates are read at 405 nm. Controls included cells cultured in aerobic conditions in serum-containing medium (+serum) and cells cultured in aerobic conditions in serum-deprived medium (−serum).

Jurkat E6.1 cells = assay: Anti-Fas induced apoptosis assay; type: cell-based; conditions: Homo sapiens, anti-Fas antibody CH-11 10 ng/ml, 16-18 hrs, DNA fragmentation
Source text: Cellular apoptosis may be induced by the binding of Fas ligand (FasL) to its receptor, CD95 (Fas). CD95 is one of a family of related receptors, known as death receptors, which can trigger apoptosis in cells via activation of the caspase enzyme cascade. The process is initiated by the binding of the adapter molecule FADD/MORT-1 to the cytoplasmic domain of the CD-95 receptor-ligand complex. Caspase-8 then binds FADD and becomes activated, initiating a cascade of events that involve the activation of downstream caspases and subsequent cellular apoptosis. Apoptosis can also be induced in cells expressing CD95 e.g., the Jurkat E6.1 T cell lymphoma cell line, using an antibody, rather than FasL, to crosslink the cell surface CD95. Anti-Fas-induced apoptosis is also triggered via the activation of caspase-8. This provides the basis of a cell based assay to screen compounds for inhibition of the caspase-8-mediated apoptotic pathway.
Jurkat E6.1 cells are cultured in complete medium consisting of RPMI-1640 (Sigma No)+10% foetal calf serum (Gibco BRL No. 10099-141)+2 mM L-glutamine (Sigma No. G-7513). The cells are harvested in log phase of growth. 100 ml of cells at 5-8×10^5 cells/ml are transferred to sterile 50 ml Falcon centrifuge tubes and centrifuged for 5 minutes at 100×g at room temperature. The supernatant is removed and the combined cell pellets resuspended in 25 ml of complete medium. The cells are counted and the density adjusted to 2×10^6 cells/ml with complete medium.
The test compound is dissolved in dimethyl sulfoxide (DMSO)(Sigma No. D-2650) to give a 100 mM stock solution. This is diluted to 400 μM in complete medium, then serially diluted in a 96-well plate prior to addition to the cell assay plate.
100 μl of the cell suspension ([…]) is added to each well of a sterile 96-well round-bottomed cluster plate (Costar No. 3790). 50 μl of compound solution at the appropriate dilution and 50 μl of anti-Fas antibody, clone CH-11 (Upstate, Cat No. 1 544 675) at a final concentration of 10 ng/ml, are added to the wells. Control wells are set up minus antibody and minus compound but with a serial dilution of DMSO as vehicle control. The plates are incubated for 16-18 hrs at 37° C. in 5% CO2 and 95% humidity.
Apoptosis of the cells is measured by the quantitation of DNA fragmentation using a ‘Cell Death Detection Assay’ from Roche diagnostics, No. 1544 675. After incubation for 16-18 hrs the assay plates are centrifuged at 100×g at room temperature for 5 minutes. 150 μl of the supernatant are removed and replaced by 150 μl of fresh complete medium. The cells are then harvested and 200 μl of the lysis buffer supplied in the assay kit are added to each well. The cells are triturated to ensure complete lysis and incubated for 30 minutes at 4° C. The plates are then centrifuged at 1900×g for 10 minutes and the supernatants diluted 1:20 in the incubation buffer provided. 100 μl of this solution is then assayed according to the manufacturer's instructions supplied with the kit. OD405 nm is measured 20 minutes after addition of the final substrate in a SPECTRAmax Plus plate reader (Molecular Devices). OD405 nm is plotted versus compound concentration and the IC50 values for the compounds are calculated using the curve-fitting program SOFTmax Pro (Molecular Devices) using the four parameter fit option.

Row | pIC50 [1] | pIC50 (Jurkat E6.1 cells) | SMILES | pIC50 (rat cortical neurons)
1 | 5.30 to 6.30 | – | CC[C@@H](C(=O)N[C@@H](CC(=O)O)C(=O)COc1c(F)c(F)cc(F)c1F)n1cccc(NC(=O)N2CCCC2)c1=O [Compound 16, (S,S)-4-Oxo-3-(2-{2-oxo-3-[(pyrrolidine-1-carbonyl)-amino]-2H-pyridin-1-yl}-butyrylamino)-5-(2,3,5,6-tetrafluoro-phenoxy)-pentanoic acid] | 5.00 to 6.00
2 | 5.30 to 6.30 | – | CC[C@@H](C(=O)N[C@@H](CC(=O)O)C(=O)COc1c(F)c(F)cc(F)c1F)n1cccc(NS(=O)(=O)C(C)C)c1=O [Compound 20, (S,S)-4-Oxo-3-{2-[2-oxo-3-(propane-2-sulfonylamino)-2H-pyridin-1-yl]-butyrylamino}-5-(2,3,5,6-tetrafluoro-phenoxy)-pentanoic acid] | > 6.00
3 | 5.30 to 6.30 | – | CC[C@@H](C(=O)N[C@@H](CC(=O)O)C(=O)COc1c(F)c(F)cc(F)c1F)n1cccc(NS(=O)(=O)c2ccccc2)c1=O [Compound 21, (S,S)-3-[2-(3-Benzenesulfonylamino-2-oxo-2H-pyridin-1-yl)-butyrylamino]-4-oxo-5-(2,3,5,6-tetrafluoro-phenoxy)-pentanoic acid] | 5.00 to 6.00
4 | 5.30 to 6.30 | – | CC(C)[C@@H](C(=O)N[C@@H](CC(=O)O)C(=O)COc1c(F)c(F)cc(F)c1F)n1cccc(NC(=O)Cc2ccccc2)c1=O [Compound 23, (S,S)-3-[3-Methyl-2-(2-oxo-3-phenylacetylamino-2H-pyridin-1-yl)-butyrylamino]-4-oxo-5-(2,3,5,6-tetrafluoro-phenoxy)-pentanoic acid] | –
5 | – | > 6.30 | CCC(=O)Nc1cccn([C@@H](C)C(=O)NC(CC(=O)O)C(=O)CF)c1=O (stereo partly drawn) [Compound 25, (S)-5-Fluoro-4-oxo-3-[2-(2-oxo-3-propionylamino-2H-pyridin-1-yl)-propionylamino]-pentanoic acid] | –
6 | – | 5.70 to 6.30 | C[C@@H](C(=O)NC(CC(=O)O)C(=O)CF)n1cccc(NC(=O)c2ccccc2)c1=O (stereo partly drawn) [Compound 26, (S)-3-[2-(3-Benzoylamino-2-oxo-2H-pyridin-1-yl)-propionylamino]-5-fluoro-4-oxo-pentanoic acid] | –
7 | – | > 6.30 | C[C@@H](C(=O)NC(CC(=O)O)C(=O)CF)n1cccc(NC(=O)c2c(Cl)cccc2Cl)c1=O (stereo partly drawn) [Compound 27, (S)-3-{2-[3-(2,6-Dichloro-benzoylamino)-2-oxo-2H-pyridin-1-yl]-propionylamino}-5-fluoro-4-oxo-pentanoic acid] | –
8 | 5.30 to 6.30 | – | CC[C@@H](C(=O)N[C@@H](CC(=O)O)C(=O)COc1c(F)c(F)cc(F)c1F)n1cccc(Nc2nccs2)c1=O [Compound 38, (S,S)-4-Oxo-3-{2-[2-oxo-3-(thiazol-2-ylamino)-2H-pyridin-1-yl]-butyrylamino}-5-(2,3,5,6-tetrafluoro-phenoxy)-pentanoic acid] | > 6.00
9 | 5.30 to 6.30 | – | CCCNc1cccn([C@@H](CC)C(=O)N[C@@H](CC(=O)O)C(=O)COc2c(F)c(F)cc(F)c2F)c1=O [Compound 39, (S,S)-4-Oxo-3-[2-(2-oxo-3-propylamino-2H-pyridin-1-yl)-butyrylamino]-5-(2,3,5,6-tetrafluoro-phenoxy)-pentanoic acid] | > 6.00

More lines, now with the values behind:

Row | SMILES | pIC50 [1] | pIC50 (Jurkat E6.1 cells) | pIC50 (rat cortical neurons)
10 | CCCC(=O)Nc1cccn([C@@H](CC)C(=O)N[C@@H](CC(=O)O)C(=O)COc2c(F)c(F)cc(F)c2F)c1=O [Compound 3, (S,S)-3-[2-(3-Butyrylamino-2-oxo-2H-pyridin-1-yl)-butyrylamino]-4-oxo-5-(2,3,5,6-tetrafluoro-phenoxy)-pentanoic acid] | > 6.30 | – | 5.00 to 6.00
11 | CC[C@@H](C(=O)N[C@@H](CC(=O)O)C(=O)COc1c(F)c(F)cc(F)c1F)n1cccc(NC(=O)COC)c1=O [Compound 6, (S,S)-3-{2-[3-(2-Methoxy-acetylamino)-2-oxo-2H-pyridin-1-yl]-butyrylamino}-4-oxo-5-(2,3,5,6-tetrafluoro-phenoxy)-pentanoic acid] | 5.30 to 6.30 | – | 5.00 to 6.00
12 | CC[C@@H](C(=O)N[C@@H](CC(=O)O)C(=O)COc1c(F)c(F)cc(F)c1F)n1cccc(NC(=O)c2ccoc2)c1=O [Compound 8, (S,S)-3-(2-{3-[(Furan-3-carbonyl)-amino]-2-oxo-2H-pyridin-1-yl}-butyrylamino)-4-oxo-5-(2,3,5,6-tetrafluoro-phenoxy)-pentanoic acid] | 5.30 to 6.30 | – | 5.00 to 6.00
13 | CC[C@@H](C(=O)N[C@@H](CC(=O)O)C(=O)COc1c(F)c(F)cc(F)c1F)n1cccc(NC(=O)c2cccnc2)c1=O [Compound 9, (S,S)-4-Oxo-3-(2-{2-oxo-3-[(pyridine-3-carbonyl)-amino]-2H-pyridin-1-yl}-butyrylamino)-5-(2,3,5,6-tetrafluoro-phenoxy)-pentanoic acid] | 5.30 to 6.30 | – | 5.00 to 6.00
14 | CC[C@@H](C(=O)N[C@@H](CC(=O)O)C(=O)COc1c(F)c(F)cc(F)c1F)n1cccc(NC(=O)c2ccsn2)c1=O [Compound 10, (S,S)-3-(2-{3-[(Isothiazole-3-carbonyl)-amino]-2-oxo-2H-pyridin-1-yl}-butyrylamino)-4-oxo-5-(2,3,5,6-tetrafluorophenoxy)-pentanoic acid] | > 6.30 | – | > 6.00
15 | CC[C@@H](C(=O)N[C@@H](CC(=O)O)C(=O)COc1c(F)c(F)cc(F)c1F)n1cccc(NC(=O)Cc2ccccc2)c1=O [Compound 12, (S,S)-4-Oxo-3-[2-(2-oxo-3-phenylacetylamino-2H-pyridin-1-yl)-butyrylamino]-5-(2,3,5,6-tetrafluoro-phenoxy)-pentanoic acid] | 5.30 to 6.30 | – | > 6.00
16 | CCNC(=O)Nc1cccn([C@@H](CC)C(=O)N[C@@H](CC(=O)O)C(=O)COc2c(F)c(F)cc(F)c2F)c1=O [Compound 14, (S,S)-3-{2-[3-(3-Ethyl-ureido)-2-oxo-2H-pyridin-1-yl]-butyrylamino}-4-oxo-5-(2,3,5,6-tetrafluoro-phenoxy)-pentanoic acid] | > 6.30 | – | 5.00 to 6.00
17 | CC[C@@H](C(=O)N[C@@H](CC(=O)O)C(=O)COc1c(F)c(F)cc(F)c1F)n1cccc(NC(=O)N(CC)CC)c1=O [Compound 15, (S,S)-3-{2-[3-(3,3-Diethyl-ureido)-2-oxo-2H-pyridin-1-yl]-butyrylamino}-4-oxo-5-(2,3,5,6-tetrafluoro-phenoxy)-pentanoic acid] | 5.30 to 6.30 | – | > 6.00
18 | CCS(=O)(=O)Nc1cccn([C@H](C(=O)N[C@@H](CC(=O)O)C(=O)COc2c(F)c(F)cc(F)c2F)C(C)C)c1=O [Compound 24, (S,S)-3-[2-(3-Ethanesulfonylamino-2-oxo-2H-pyridin-1-yl)-3-methyl-butyrylamino]-4-oxo-5-(2,3,5,6-tetrafluoro-phenoxy)-pentanoic acid] | – | – | 5.00 to 6.00
